“Also recorded” adds a separate entry of the source.
Assays:
A53T αSyn = assay: Dopaminergic neuron viability assay, A53T αSyn adenovirus transduced primary midbrain cultures; type: cell-based, rat
Procedure: Primary midbrain cultures were prepared and dopaminergic neuronal viability in the presence and absence of αSyn was assessed as previously described and repeated herein. Primary midbrain cultures were prepared from embryonic day 17 embryos of Sprague-Dawley rats using methods reviewed and approved by the Purdue Animal Care and Use Committee as described previously. After dissection, the cells were plated into a poly-L-lysine-treated 48-well plate at a density of 163,500 cells per well. Four days later, the cells were treated with cytosine arabinofuranoside (AraC) (20 μM) for 48 hours to inhibit the growth of glial cells. The cultures were used for measurements of dopaminergic neuron viability at 7 days in vitro. […] In order to determine the viability of dopaminergic neurons, MAP2- and TH-positive neurons were counted in 10 to 15 randomly chosen observation fields in a blinded manner using a Nikon TE2000-U inverted fluorescence microscope (Nikon Instruments, Melville NY) with a 20× objective. In the control conditions, and in conditions where the compound was neuroprotective, typically 500 to 1,300 MAP2-positive neurons were counted, a range that corresponds to 20 to 50 TH-positive neurons. The data were expressed as the ratio of the TH-positive neurons to the MAP2-positive neurons. […]

αSyn = assay: Western analyses of αSyn levels in H4 cells; type: cell-based, human; details: H4 cells transiently transfected with split Gaussia luciferase tagged αSyn, 150 μM
Procedure: All materials were purchased from Invitrogen (Carlsbad, CA) unless stated otherwise. Cell from a 6 well dish were washed twice with PBS and lysed with 250 μl of RIPA Lysis buffer with protease and phosphatase inhibitors (Sigma, St. Louis, MO). Lysates were incubated on a shaker for 15 minutes at 4° C. and spun down for 15 min. at 10,000 g. Total protein concentrations were determined by BCA assay (Thermo Fisher, Waltham, MA). 1 ml of media was collected and incubated with protease and phosphatase inhibitors and 50 μl of Ni-agarose beads to collect the His-tagged αSyn (Qiagen, Hilden, Germany) for 2 hrs at […]. Beads were centrifuged and washed in PBS. Cell samples and pelleted beads from the media were placed into Bolt LDS (lithium dodecyl sulfate) sample buffer with 20% β-mercaptoethanol and boiled for 15 min. 5-15 μg of sample (cells) and an equivalent fraction of media were electrophoresed on Bolt 4-12% Bis-Tris Plus gels with Bolt MES SDS running buffer and the Precision Plus Protein Dual Color Standards (Biorad, Hercules, CA) molecular weight markers. After electrophoresis, the separated proteins were transferred onto a 0.2 μm pore size PVDF membrane for 90 minutes at 400 mA and 4° C. in Bolt Transfer Buffer using BioRad midi transfer chambers. […] Membranes were scanned and quantitated using the Odyssey CLx Imaging System (LI-COR, Lincoln, NE). […]

[1] = system: H4 SL1 & SL2 neuroglioma cell line; assay: Cell model of αSyn aggregate formation (phospho-S129 αSyn staining, ARRAYSCAN); type: cell-based; details: 100 μM and 150 μM, 45 hours
Procedure: Next, 583854 was tested for impact on αSyn aggregation in a cell model of αSyn aggregate formation. Split Gaussian luciferase tagged αSyn overexpression was induced in the H4 SL1 & SL2 neuroglioma cell line by tetracycline addition (Moussaud, S., et al. (2015)). αSyn aggregates were visualized by staining fixed (4% PFA) cells with the S129 phosphorylated αSyn specific antibody 11A5 at 1 μg/ml (Anderson, J. P. et al. (2006)) using a green fluorescently labelled secondary antibody. Nuclei were stained with a blue Hoescht nuclear dye. Uninduced cells contained no phospho-αSyn staining and induced cells contain abundant phospho-αSyn aggregates. The cells were imaged for nuclei (blue, diffuse circular staining as in the Uninduced sample)) and phospho-αSyn (green punctate staining) on an ARRAYSCAN automated imaging platform (FIG. 23A), αSyn aggregates were quantitated using the ARRAYSCAN spot-detector algorithm. Cells were induced for αSyn by tetracycline addition and 583854 was added 3 to 4 hours later. At 48 hours after tetracycline addition the cells are washed in PBS and […] with 4% PFA.

| SMILES | effect on A53T αSyn neurotoxicity (TH-positive/MAP2-positive neurons) (A53T αSyn; 10 μM) | effect on A53T αSyn neurotoxicity (TH-positive/MAP2-positive neurons) (A53T αSyn; 60 μM) | impact on cellular αSyn protein levels (αSyn) | impact on αSyn aggregates (phospho-αSyn) [1] |
| --- | --- | --- | --- | --- |
| CNC(=O)c1cc(O)ccc1N [Compound 576755, 2-amino-5-hydroxy-N-methylbenzamide] | a trend towards a similar inhibitory effect | suppressed A53T αSyn neurotoxicity; also recorded: alleviates loss of dopaminergic neurons | no impact on αSyn levels | – |
| CNC(=O)c1cc(O)ccc1O [Compound 583854, 2,5-dihydroxy-N-methylbenzamide] | – | – | – | reduced αSyn aggregates |

Reference: patent US12553889B2, “Small molecules targeting the intrinsically disordered structural ensemble of α-synuclein protect against diverse α-synuclein mediated dysfunctions” (The Regents of the University of California, priority 2019, dated 2026)
